Laboratory results as given in US12084472B2 (Ardelyx, Inc., priority 2015, dated 2024).

biological target: T1, human TGR5 (Homo sapiens, UniProt Q8TDU6); experiment: Cell-based TGR5 assay (cAMP generation, HTRF); conditions: HEK293 cells stably transfected with human TGR5; cAMP by HTRF; 30 minutes at 37° C.; read-out: pEC50 Human TGR5 (converted)
T1 construct: expressed in transfected cells; host or cells: HEK293
T1 sequence (Q8TDU6 1-330): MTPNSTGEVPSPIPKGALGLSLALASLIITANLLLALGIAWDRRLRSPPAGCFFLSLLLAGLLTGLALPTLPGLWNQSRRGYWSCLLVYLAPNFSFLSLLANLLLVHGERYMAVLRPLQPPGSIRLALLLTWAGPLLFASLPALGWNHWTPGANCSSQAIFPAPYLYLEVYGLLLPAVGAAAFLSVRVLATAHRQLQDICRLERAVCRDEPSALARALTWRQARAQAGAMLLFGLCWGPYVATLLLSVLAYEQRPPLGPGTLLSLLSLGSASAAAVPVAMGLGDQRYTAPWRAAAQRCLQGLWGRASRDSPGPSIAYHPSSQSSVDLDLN
Description: A primary cell-based assay utilized HEK293 cells stably transfected with a gene encoding human TGR5. Cells were treated with candidate TGR5 activators and assessed for increased intercellular levels of cAMP.
TGR5-mediated cAMP generation was measured using a homogeneous time resolved fluorescence (HTRF) detection method (Cisbio). Test compounds were dissolved in DMSO to a final concentration of 10 mM. Serial 3-fold dilutions of the stock solution were made in DMSO, and these solutions were diluted 100-fold into Hanks Balanced Salt Solution supplemented with 10 mM HEPES pH 7.4, 0.003% Tween 20 and 0.5 mM isobutyl methylxanthine. Five microliters of diluted test compounds were added to wells of a black 384 well plate.
Cells grown overnight at 37° C./5% CO2 were harvested and resuspended in Hanks Balanced Salt Solution containing 10 mM HEPES to a concentration of […]. Five microliters (2500 cells) were dispensed into each well of the 384 well plate containing compound dilutions and incubated at 37° C. for 30 minutes. Each compound was tested in duplicate at 12 concentrations ranging from 0.05 nM to 10 μM.
Following incubation with test compounds, cAMP was detected through the successive addition of 5 μL each of cAMP labeled with the modified allophyocyanin dye d2 (cAMP-d2) and cryptate-labeled anti-cAMP in lysis buffer, and reading HTRF per the manufacturer's instructions.
A standard curve was used to convert the raw HTRF data into [cAMP]. The concentration of cAMP was plotted against log [test compound] and the resulting curves were fit to a 3-parameter logistical equation using GraphPad Prism to determine pEC50 (the negative log of the EC50) and the magnitude of the response.

Row | Structure (SMILES) | EC50
1 | CC(CCCCNC(=O)N[C@@H](CO)[C@@H](O)[C@H](O)[C@H](O)CO)c1ccc(Cl)c(CNC2(c3cnccc3-c3ccccc3OC3CC3)CC2)c1 (stereo partly drawn) [Compound I-266, 1-(5-{4-chloro-3-[({1-[4-(2-cyclopropoxyphenyl)pyridin-3-yl]cyclopropyl}amino)methyl]phenyl}hexyl)-3-[(2S,3R,4S,5R)-1,3,4,5,6-pentahydroxyhexan-2-yl]urea] | < 100 nM
2 | NS(=O)(=O)CCN(CCCCc1cc(Cl)c(COC2(c3cnccc3-c3ccccc3OC3CC3)CC2)cc1Cl)C(=O)[C@H](O)[C@@H](O)[C@H](O)[C@H](O)CO [Compound I-84, (2R,3S,4R,5R)-N-{4-[2,5-dichloro-4-({1-[4-(2-cyclopropoxyphenyl)pyridin-3-yl]cyclopropoxy}methyl)phenyl]butyl}-2,3,4,5,6-pentahydroxy-N-(2-sulfamoylethyl)hexanamide] | < 100 nM
3 | CCN(CCCCN)S(=O)(=O)c1ccc(Cl)c(COC2(c3cnccc3-c3ccccc3OC3CC3)CC2)c1 [Compound I-463, N-(4-aminobutyl)-4-chloro-3-({1-[4-(2-cyclopropoxyphenyl)pyridin-3-yl]cyclopropoxy}methyl)-N-ethylbenzene-1-sulfonamide] | < 100 nM
4 | Cc1ccc(SCCCC(=O)N(C)C[C@H](O)[C@@H](O)[C@H](O)[C@H](O)CO)nc1CNC1(c2cnccc2-c2ccccc2OC2CC2)CC1 [Compound I-654, 4-({6-[({1-[4-(2-cyclopropoxyphenyl)pyridin-3-yl]cyclopropyl}amino)methyl]-5-methylpyridin-2-yl}sulfanyl)-N-methyl-N-[(2S,3R,4R,5R)-2,3,4,5,6-pentahydroxyhexyl]butanamide] | 1260 to 10000 nM
5 | Cc1ccc(C(C)CCCC(=O)N(C[C@H](O)[C@@H](O)[C@H](O)[C@H](O)CO)C2CCOCC2)cc1CNC1(c2cnccc2-c2ccccc2OC2CC2)CC1 (stereo partly drawn) [Compound I-363, 5-{3-[({1-[4-(2-cyclopropoxyphenyl)pyridin-3-yl]cyclopropyl}amino)methyl]-4-methylphenyl}-N-(oxan-4-yl)-N-[(2S,3R,4R,5R)-2,3,4,5,6-pentahydroxyhexyl]hexanamide] | < 100 nM
6 | CC(=O)N(CCCCCSc1ccc(Cl)c(CNC2(c3cnccc3-c3ccccc3OC3CC3)CC2)c1)C[C@H](O)[C@@H](O)[C@H](O)[C@H](O)CO [Compound I-499, N-[5-({4-chloro-3-[({1-[4-(2-cyclopropoxyphenyl)pyridin-3-yl]cyclopropyl}amino)methyl]phenyl}sulfanyl)pentyl]-N-[(2S,3R,4R,5R)-2,3,4,5,6-pentahydroxyhexyl]acetamide] | < 100 nM
7 | Fc1ccc(-c2ccncc2C2(NCc3cc(Cl)ccc3Cl)CC2)c(OC2CC2)c1 [Compound I-18, 1-[4-(2-cyclopropoxy-4-fluorophenyl)pyridin-3-yl]-N-[(2,5-dichlorophenyl)methyl]cyclopropan-1-amine] | < 100 nM
8 | CS(=O)(=O)CCN(CCCCCSc1ccc(Cl)c(COC2(c3cnccc3-c3ccccc3OC3CC3)CC2)c1)C(=O)[C@@H](O)[C@@H](O)[C@H](O)[C@@H](O)CO [Compound I-603, (2S,3S,4R,5S)-N-(5-{[4-chloro-3-({1-[4-(2-cyclopropoxyphenyl)pyridin-3-yl]cyclopropoxy}methyl)phenyl]sulfanyl}pentyl)-2,3,4,5,6-pentahydroxy-N-(2-methanesulfonylethyl)hexanamide] | < 100 nM
9 | O=C(COCC1CN(S(=O)(=O)c2ccc(Cl)c(COC3(c4cnccc4-c4ccccc4OC4CC4)CC3)c2)C1)NC[C@H](O)[C@@H](O)[C@H](O)[C@H](O)CO [Compound I-456, 2-({1-[4-chloro-3-({1-[4-(2-cyclopropoxyphenyl)pyridin-3-yl]cyclopropoxy}methyl)benzenesulfonyl]azetidin-3-yl}methoxy)-N-[(2S,3R,4R,5R)-2,3,4,5,6-pentahydroxyhexyl]acetamide] | < 100 nM
10 | CC(CCCCN)c1ccc(Cl)c(CNC2(c3cnccc3-c3ccccc3OC3CC3)CC2)c1 (centres unmarked) [Compound I-242, N-[[5-(6-aminohexan-2-yl)-2-chlorophenyl]methyl]-1-[4-(2-cyclopropoxyphenyl)pyridin-3-yl]cyclopropan-1-amine] | < 100 nM
11 | CN(C)C(=O)CN(C[C@H](O)[C@@H](O)[C@H](O)[C@H](O)CO)C(=O)CCCCc1cc(Cl)c(COC2(c3cnccc3-c3ccccc3OC3CC3)CC2)cc1Cl [Compound I-221, 5-[2,5-dichloro-4-({1-[4-(2-cyclopropoxyphenyl)pyridin-3-yl]cyclopropoxy}methyl)phenyl]-N-[(dimethylcarbamoyl)methyl]-N-[(2S,3R,4R,5R)-2,3,4,5,6-pentahydroxyhexyl]pentanamide] | < 100 nM
12 | CS(=O)(=O)NCCN(CCCCSc1ccc(Cl)c(CNC2(c3cnccc3-c3ccccc3OC3CC3)CC2)c1)C(=O)[C@@H](O)[C@@H](O)[C@H](O)[C@@H](O)CO [Compound I-571, (2S,3S,4R,5S)-N-[4-({4-chloro-3-[({1-[4-(2-cyclopropoxyphenyl)pyridin-3-yl]cyclopropyl}amino)methyl]phenyl}sulfanyl)butyl]-2,3,4,5,6-pentahydroxy-N-(2-methanesulfonamidoethyl) hexanamide] | < 100 nM
13 | O=C(NCCC1CCN(S(=O)(=O)c2ccc(Cl)c(COC3(c4cnccc4-c4ccccc4OC4CC4)CC3)c2)CC1)NC[C@H](O)[C@@H](O)[C@H](O)[C@H](O)CO [Compound I-417, 1-(2-{1-[4-chloro-3-({1-[4-(2-cyclopropoxyphenyl)pyridin-3-yl]cyclopropoxy}methyl)benzenesulfonyl]piperidin-4-yl}ethyl)-3-[(2S,3R,4R,5R)-2,3,4,5,6-pentahydroxyhexyl]urea] | < 100 nM
14 | Clc1ccc(Cl)c(COC2(c3cnccc3-c3ccccc3OC3CC3)COC2)c1 [Compound I-59, 4-(2-cyclopropoxyphenyl)-3-[3-[(2,5-dichlorophenyl)methoxy]oxetan-3-yl]pyridine] | < 100 nM
15 | O=C(O)COCC(=O)N(CCCCc1cc(Cl)c(COC2(c3cnccc3-c3ccccc3OC3CC3)CC2)cc1Cl)C[C@H](O)[C@@H](O)[C@H](O)[C@H](O)CO (stereo in doubt) [Compound I-186, 2-[({4-[2,5-dichloro-4-({1-[4-(2-cyclopropoxyphenyl)pyridin-3-yl]cyclopropoxy}methyl)phenyl]butyl}[(2S,3R,4R,5R)-2,3,4,5,6-pentahydroxyhexyl]carbamoyl)methoxy]acetic acid] | 126 to 1000 nM
16 | CC(CCCCN(C)C(=O)[C@@H](O)[C@@H](O)[C@H](O)[C@@H](O)CO)c1ccc(Cl)c(CNC2(c3cnccc3-c3ccccc3OC3CC3)CC2)c1 (stereo partly drawn) [Compound I-281, (2S,3S,4R,5S)-N-(5-{4-chloro-3-[({1-[4-(2-cyclopropoxyphenyl)pyridin-3-yl]cyclopropyl}amino)methyl]phenyl}hexyl)-2,3,4,5,6-pentahydroxy-N-methylhexanamide] | < 100 nM
17 | CN(CCCCNC(=O)N[C@@H](CO)[C@@H](O)[C@H](O)[C@H](O)CO)S(=O)(=O)c1cc(CNC2(c3cnccc3-c3ccccc3OC3CC3)CC2)c(Cl)cc1Cl [Compound I-476, 1-(4-{N-methyl2,4-dichloro-5-[({1-[4-(2-cyclopropoxyphenyl)pyridin-3-yl]cyclopropyl}amino)methyl]benzenesulfonamido}butyl)-3-[(2S,3R,4S,5R)-1,3,4,5,6-pentahydroxyhexan-2-yl]urea] | 126 to 1000 nM
18 | CC(CCCCCNC(=O)[C@@H](O)[C@@H](O)[C@H](O)[C@@H](O)CO)c1ccc(Cl)c(CNC2(c3cnccc3-c3ccccc3OC3CC3)CC2)c1 (stereo partly drawn) [Compound I-280, (2S,3S,4R,5S)-N-(6-{4-chloro-3-[({1-[4-(2-cyclopropoxyphenyl)pyridin-3-yl]cyclopropyl}amino)methyl]phenyl}heptyl)-2,3,4,5,6-pentahydroxyhexanamide] | < 100 nM
19 | O=C(O)[C@@H](O)[C@@H](O)[C@H](O)[C@@H](O)CNC1CCN(C(=O)CCCCc2cc(Cl)c(COC3(c4cnccc4-c4ccccc4OC4CC4)CC3)cc2Cl)CC1 (stereo in doubt) [Compound I-173, (2S,3S,4R,5S)-6-[(1-{5-[2,5-dichloro-4-({1-[4-(2-cyclopropoxyphenyl)pyridin-3-yl]cyclopropoxy}methyl)phenyl]pentanoyl}piperidin-4-yl)amino]-2,3,4,5-tetrahydroxyhexanoic acid] | < 100 nM
20 | CC(CCCC(=O)N(C)C[C@H](O)[C@@H](O)[C@H](O)[C@H](O)CO)c1ccc(Cl)c(CNC2(c3cnccc3-c3ccccc3OC3CC3)CC2)c1 (stereo partly drawn) [Compound I-327, 5-{4-chloro-3-[({1-[4-(2-cyclopropoxyphenyl)pyridin-3-yl]cyclopropyl}amino)methyl]phenyl}-N-methyl-N-[(2S,3R,4R,5R)-2,3,4,5,6-pentahydroxyhexyl]hexanamide] | < 100 nM
